Test results taken from patent US9834558B2, “Substituted bridged urea analogs as sirtuin modulators” (GLAXOSMITHKLINE LLC, priority 2013, dated 2017).

What follows are molecules tested against T1, SIRT1 (Homo sapiens, UniProt Q96EB6) (assay: Trp mass spectrometry assay of SIRT1 activation). Settings: concentration giving 150% activation of SIRT1; Trp peptide substrate.
T1 sequence (Q96EB6 1-747): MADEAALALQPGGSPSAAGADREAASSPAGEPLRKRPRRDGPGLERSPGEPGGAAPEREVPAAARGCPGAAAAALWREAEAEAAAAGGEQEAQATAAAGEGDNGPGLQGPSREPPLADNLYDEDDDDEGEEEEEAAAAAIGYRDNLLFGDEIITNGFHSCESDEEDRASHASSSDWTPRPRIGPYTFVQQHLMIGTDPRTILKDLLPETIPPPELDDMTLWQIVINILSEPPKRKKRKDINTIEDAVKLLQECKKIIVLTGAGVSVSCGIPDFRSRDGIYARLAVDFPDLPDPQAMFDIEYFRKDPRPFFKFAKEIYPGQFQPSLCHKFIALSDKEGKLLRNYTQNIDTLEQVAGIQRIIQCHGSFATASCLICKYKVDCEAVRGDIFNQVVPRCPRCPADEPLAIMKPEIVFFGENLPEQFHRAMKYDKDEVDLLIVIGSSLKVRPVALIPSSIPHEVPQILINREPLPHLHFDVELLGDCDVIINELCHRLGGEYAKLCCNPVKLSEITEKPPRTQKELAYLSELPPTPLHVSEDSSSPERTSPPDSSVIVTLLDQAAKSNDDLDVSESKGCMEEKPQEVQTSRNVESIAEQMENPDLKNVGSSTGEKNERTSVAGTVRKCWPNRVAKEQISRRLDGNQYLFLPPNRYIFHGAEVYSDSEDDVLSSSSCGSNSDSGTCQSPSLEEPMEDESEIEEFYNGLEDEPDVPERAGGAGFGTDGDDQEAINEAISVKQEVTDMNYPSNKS
Type: biochemical
Outline: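 N-terminal His-tagged human SIRT1 (10 nM, E. coli BL21(DE3)) with 0.5 μM Ac-RHKK(Ac)W-NH2 peptide and 120 μM βNAD+, 25 min at 25 °C in HEPES pH 7.5, formic acid stop. OAADPR or deacetylated peptide quantified by mass spectrometry; EC1.5 (50% activity increase over control) and Percent Maximum Activation reported.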

Structure (SMILES)	Tryp AVG EC1.5 (μM)
CC(=O)c1ccc(NC(=O)N2c3nc(-c4cccc(C(F)(F)F)c4)ccc3N3CC[C@H]2C3)cc1 [Example 668]	A (A (EC1.5<1 μM))
O=C(Nc1ccncn1)N1c2nc(-c3cccc(C(F)(F)F)c3)ccc2N2C[C@@H](O)[C@H]1C2 [Example 669]	B (B (EC1.5 1-25 μM))
Cc1cncc(NC(=O)N2c3nc(-c4cccc(C(F)(F)F)c4)ccc3N3C[C@@H](O)[C@H]2C3)c1 [Example 670]	A (A (EC1.5<1 μM))
CC(=O)c1cccc(NC(=O)N2c3nc(-c4cccc(C(F)(F)F)c4)ccc3N3CC[C@H]2C3)c1 [Example 671]	A (A (EC1.5<1 μM))
O=C(Nc1ccc(Br)c(-c2cnco2)c1)N1c2nc(-c3cccc(C(F)(F)F)c3)ccc2N2CC[C@H]1C2 [Example 672]	A (A (EC1.5<1 μM))
O=C(NCCCc1ccccn1)N1c2nc(-c3cccc(C(F)(F)F)c3)ccc2N2CC[C@H]1C2 [Example 673]	B (B (EC1.5 1-25 μM))
O=C(NCCCc1cccnc1)N1c2nc(-c3cccc(C(F)(F)F)c3)ccc2N2CC[C@H]1C2 [Example 674]	B (B (EC1.5 1-25 μM))
O=C(Nc1ccccn1)N1c2nc(-c3cccc(Cl)c3)ccc2N2C[C@@H](O)[C@H]1C2 [Example 675]	B (B (EC1.5 1-25 μM))
Cc1cncc(NC(=O)N2c3nc(-c4cccc(Cl)c4)ccc3N3C[C@@H](O)[C@H]2C3)c1 [Example 676]	A (A (EC1.5<1 μM))
Cc1cncc(NC(=O)N2c3nc(-c4cccc(Cl)c4)ccc3N3C[C@@H](O)[C@H]2C3)c1 [Example 677]	B (B (EC1.5 1-25 μM))
O=C(Nc1cnccn1)N1c2nc(-c3cccc(Cl)c3)ccc2N2C[C@@H](O)[C@H]1C2 [Example 678]	C (C (EC1.5>25 μM))
COc1cc(NC(=O)N2c3nc(-c4cccc(Cl)c4)ccc3N3C[C@@H](O)[C@H]2C3)ncn1 [Example 679]	B (B (EC1.5 1-25 μM))
COc1cc(NC(=O)N2c3nc(-c4cccc(Cl)c4)ccc3N3C[C@@H](O)[C@H]2C3)nc(OC)n1 [Example 680]	B (B (EC1.5 1-25 μM))
O=C(Nc1cccnc1)N1c2nc(-c3cccc(Cl)c3)ccc2N2C[C@@H](O)[C@H]1C2 [Example 681]	B (B (EC1.5 1-25 μM))
O=C(Nc1cccnn1)N1c2nc(-c3cccc(Cl)c3)ccc2N2C[C@@H](O)[C@H]1C2 [Example 682]	B (B (EC1.5 1-25 μM))
O=C(Nc1cccc(-c2cnco2)c1)N1c2nc(-c3cccc(Cl)c3)ccc2N2C[C@@H](O)[C@H]1C2 [Example 683]	A (A (EC1.5<1 μM))
O=C(Nc1ccncn1)N1c2nc(-c3cccc(Cl)c3)ccc2N2C[C@@H](O)[C@H]1C2 [Example 684]	B (B (EC1.5 1-25 μM))
O=C(Nc1cc(-c2cnco2)ccn1)N1c2nc(-c3cccc(Cl)c3)ccc2N2C[C@@H](O)[C@H]1C2 [Example 685]	B (B (EC1.5 1-25 μM))
Cc1nc(NC(=O)N2c3nc(-c4cccc(Cl)c4)ccc3N3C[C@@H](O)[C@H]2C3)sc1C [Example 688]	B (B (EC1.5 1-25 μM))
O=C(NCCCCn1ccnc1)N1c2nc(-c3cccc(C(F)(F)F)c3)ccc2N2CC[C@H]1C2 [Example 689]	B (B (EC1.5 1-25 μM))
Cc1cncc(NC(=O)N2c3nc(-c4cncc(C(F)(F)F)c4)ccc3N3C[C@@H](O)[C@H]2C3)c1 [Example 690]	B (B (EC1.5 1-25 μM))
O=C(Nc1cncc(F)c1)N1c2nc(-c3cncc(C(F)(F)F)c3)ccc2N2C[C@@H](O)[C@H]1C2 [Example 691]	B (B (EC1.5 1-25 μM))
O=C1CN2C[C@H]1N(C(=O)Nc1cccc(-c3cnco3)c1)c1nc(-c3cccc(C(F)(F)F)c3)ccc12 [Example 692]	A (A (EC1.5<1 μM))
O=C(Nc1cccc(-c2cnco2)n1)N1c2nc(-c3cccc(Cl)c3)ccc2N2C[C@@H](O)[C@H]1C2 [Example 693]	A (A (EC1.5<1 μM))

Structure (SMILES)	Tryp AVG EC1.5 (μM)
O=C(Nc1ccccn1)N1c2nc(-c3cncc(C(F)(F)F)c3)ccc2N2C[C@@H](O)[C@H]1C2 [Example 694]	A (A (EC1.5<1 μM))
O=C(Nc1cnccn1)N1c2nc(-c3cncc(C(F)(F)F)c3)ccc2N2C[C@@H](O)[C@H]1C2 [Example 695]	B (B (EC1.5 1-25 μM))
COc1cc(NC(=O)N2c3nc(-c4cncc(C(F)(F)F)c4)ccc3N3C[C@@H](O)[C@H]2C3)ncn1 [Example 696]	B (B (EC1.5 1-25 μM))
Cc1nc(NC(=O)N2c3nc(-c4cncc(C(F)(F)F)c4)ccc3N3C[C@@H](O)[C@H]2C3)sc1C [Example 697]	B (B (EC1.5 1-25 μM))
O=C(Nc1cccc(-c2cnco2)n1)N1c2nc(-c3cccc(C(F)(F)F)c3)ccc2N2C[C@@H](O)[C@H]1C2 [Example 698]	A (A (EC1.5<1 μM))
Cc1nc(NC(=O)N2c3nc(-c4cccc(C(F)(F)F)c4)ccc3N3C[C@@H](O)[C@H]2C3)sc1C [Example 699]	B (B (EC1.5 1-25 μM))
O=C(Nc1ccncn1)N1c2nc(-c3cncc(C(F)(F)F)c3)ccc2N2C[C@@H](O)[C@H]1C2 [Example 700]	B (B (EC1.5 1-25 μM))
O=C(Nc1cccnn1)N1c2nc(-c3cncc(C(F)(F)F)c3)ccc2N2C[C@@H](O)[C@H]1C2 [Example 701]	B (B (EC1.5 1-25 μM))
O=C(Nc1cccc(-c2cnco2)n1)N1c2nc(-c3cncc(C(F)(F)F)c3)ccc2N2C[C@@H](O)[C@H]1C2 [Example 703]	A (A (EC1.5<1 μM))
COc1cc(NC(=O)N2c3nc(-c4cncc(C(F)(F)F)c4)ccc3N3C[C@@H](O)[C@H]2C3)nc(OC)n1 [Example 704]	B (B (EC1.5 1-25 μM))
O=C(Nc1cccnc1)N1c2nc(-c3cncc(C(F)(F)F)c3)ccc2N2C[C@@H](O)[C@H]1C2 [Example 705]	B (B (EC1.5 1-25 μM))
O=C(NCc1ncc(-c2cccc(NC(=O)N3c4nc(-c5cccc(C(F)(F)F)c5)ccc4N4CC[C@H]3C4)c2)o1)OCc1ccccc1 [Example 706]	A (A (EC1.5<1 μM))
O=C(CCCCCNC(=O)c1ccc2c(c1)C(=O)OC21c2ccc(O)cc2Oc2cc(O)ccc21)NCc1ncc(-c2cccc(NC(=O)N3c4nc(-c5cccc(C(F)(F)F)c5)ccc4N4CC[C@H]3C4)c2)o1 [Example 708]	A (A (EC1.5<1 μM))
O=C(Nc1cccc(-c2cnco2)c1)N1c2nc(-c3cncc(C(F)(F)F)c3)ccc2N2C[C@@H](O)[C@H]1C2 [Example 709]	A (A (EC1.5<1 μM))
CS(=O)(=O)c1cccc(-c2ccc3c(n2)N(C(=O)Nc2cccc(-c4cnco4)c2)[C@H]2CCN3C2)c1 [Example 710]	A (A (EC1.5<1 μM))
CCC(=O)c1cccc(NC(=O)N2c3nc(-c4cccc(C(F)(F)F)c4)ccc3N3CC[C@H]2C3)c1 [Example 714]	A (A (EC1.5<1 μM))
CS(=O)(=O)c1cccc(-c2ccc3c(n2)N(C(=O)Nc2cccc(-c4cnco4)n2)[C@H]2CCN3C2)c1 [Example 715]	B (B (EC1.5 1-25 μM))
O=C(Nc1cncc(-c2cnco2)c1)N1c2nc(-c3cncc(F)c3)ccc2N2CC[C@H]1C2 [Example 716]	B (B (EC1.5 1-25 μM))
O=C(Nc1cccc(-c2cnco2)c1)N1c2nc(N3CCC[C@@H](C(F)(F)F)C3)ccc2N2CC[C@H]1C2 [Example 717]	A (A (EC1.5<1 μM))
O=C(Nc1cccc(-c2cnco2)c1)N1c2nc(N3CCC[C@H](C(F)(F)F)C3)ccc2N2CC[C@H]1C2 [Example 718]	A (A (EC1.5<1 μM))
O=C(Nc1nnc(-c2ccccc2)o1)N1c2nc(-c3cccc(C(F)(F)F)c3)ccc2N2CC[C@H]1C2 [Example 719]	A (A (EC1.5<1 μM))
O=C(Nc1nnc(-c2ccccn2)o1)N1c2nc(-c3cccc(C(F)(F)F)c3)ccc2N2CC[C@H]1C2 [Example 720]	A (A (EC1.5<1 μM))
O=C(Nc1nnc(-c2cccnc2)o1)N1c2nc(-c3cccc(C(F)(F)F)c3)ccc2N2CC[C@H]1C2 [Example 721]	A (A (EC1.5<1 μM))
O=C(Nc1cccc(-c2cnco2)c1)N1c2nc(-c3cncc(F)c3)ccc2N2CC[C@H]1C2 [Example 722]	A (A (EC1.5<1 μM))
